Measurements published in patent US5126057A, “Disinfecting with N,N'-dihaloimidazolidin-4-ones” (Auburn Research Foundation, priority 1991, dated 1992).
Read-outs that look alike come from different tables or passages of the source.

Key:
[1] = test system: Oscillatoria lutea, Anabaena cylindrica, and Chlorella pyrenoidosa; test: Algastatic effect on heavy algal growth in aquariums; format: cell-based; conditions: for regrowth of algae (in words): after total elapsed time of 19 days, all titratable chlorine disappeared; for Percent Total Potential Positive Chlorine Remaining: algal aquarium; for algastatic / algacidal effect (in words): extended periods, water containing heavy algal growth; for decoloration / bleaching of algae (in words): within 2 days for Cpd 1 (9.9 mg per liter Cl+), Cpd 3 at 4.9 mg per liter
Excerpt: Two 10 gallon aquariums each containing 35 liters of Bristol's solution (described by R. C. Starr in the article "The Culture Collection of Algae at the University of Texas", J. Phycology, 14, 47 (1978)) at pH 6.8 were inoculated with a mixture of three species of algae; Oscillatoria lutea, Anabaena cylindrica, and Chlorella pyrenoidosa. The 2 aquariums were continually aerated and each illuminated by a 20 watt Gro-lux lamp placed 15 centimeters from the side of the aquarium. The experiment was conducted at ambient temperature which ranged between 21° and 24° C.
After a 34 day growth period the heavy algal cell density was measured by direct counts using a hemacytometer. The cell density in aquarium A at this time was 2.2×10^7 cells per milliliter, while that in aquarium B was 6.6×10^6 cells per milliliter. The absorbances of the two solutions at 750 nanometers were also measured at that time and found to be 0.273 for aquarium A and 0.112 for aquarium B. The absorbance at 750 nanometers has been employed as an index of algal chlorophyll concentration ("Standard methods for the Examination of Water and Wastewater", 16th edition, American Public Health Association, Washington, D.C., 1985, p. 1070). Then a solution of 1.042 grams of 1,3-dichloro-2,2,5,5-tetramethylimidazolidin-4-one (Compound 1) as prepared in example 3 in 500 milliliters of demand-free water (DFW) was added to aquarium A resulting in an initial potential positive chlorine concentration of 9.9 milligrams per liter in that aquarium. Similarly a solution of 0.872 gram of 1-chloro-2,2,5,5-tetramethylimidazolidin-4-one (Compound 3) as prepared in example 6 in 500 milliliters of DFW was added to aquarium B resulting in an initial potential positive chlorine concentration of 4.9 milligrams per liter in that aquarium. The aquariums were sampled periodically and analyzed for algal growth by means of absorbance measurements at 750 nanometers using a Milton Roy Spectronic 301 spectrophotometer and for total potential positive chlorine concentration using standard iodometric titration. […] Following the loss of all total potential positive chlorine from the aquariums, second additions of 0.87 grams of Compound 3 and of 1.042 grams of Compound 1 were made to aquariums B and A, respectively.

[2] = Stability in demand-free water exposed to direct sunlight; format: physicochemical; conditions: pH 7; for remaining at 3 h / remaining at 5 h / remaining at 10 h: demand-free water, direct sunlight
Experimental: The stabilities of compounds 1,5, and free chlorine from calcium hypochlorite (Compound 2) in water exposed to direct sunlight were determined. Each compound at the 10 milligrams per liter total chlorine concentration level (or at the molar equivalent for total halogen for Compound 5) was dissolved in 85 milliliters of demand-free water buffered at pH 7.0 in separate 100 milliliter beakers which were placed in a temperature-controlled water bath (22°-24° C.), and the bath containing the solutions was placed on the roof of the chemistry building at Auburn University exposed to direct sunlight during August 1988. Total potential positive halogen assays were made periodically on aliquots withdrawn over a 10 hour period using the standard iodometric titration technique.

[3] = test system: Staphylococcus aureus (ATCC 25923); test: Disinfection of hard surfaces (modified AOAC Use-Dilution Method, stainless steel cylinders); format: cell-based; conditions: for bacterial growth after contact (in words): 25, 50, 100, 200 ppm positive chlorine (molar equivalents for Cpd 5), pH 7.0, 10 minutes contact; for minimal effective concentration: Staphylococcus aureus, ATCC25923, 10 min, 10 minutes contact, pH 7.0, read-out: effective hard surface disinfectant concentration
Experimental: The efficacies of compounds 1 and 5 as hard surface disinfectants were assessed by using a modification of the AOAC Use-Dilution Method as described in "Official Methods of Analysis of the Association of Official Analytical Chemists", ed. W. Horwitz, A.O.A.C., Washington, D.C., 1989, pp. 58-59. Small stainless steel cylinders (Penicylinders from Fisher Scientific) were cleaned with 1 Normal sodium hydroxide solution, sterilized in 0.1 percent asparagine in an autoclave, and cooled to ambient temperature. The cylinders were then inoculated with Staphylococcus aureus (ATCC 25923) by placing them in a 24 hour old nutrient broth culture of the organism for 15 minutes. The cylinders were aseptically removed from the broth, placed in a sterile petri dish upon filter paper for draining, and dried at 37° C. in an incubator for 60 minutes.
The halogenated imidazolidin-4-ones were dissolved in demand-free water buffered at pH 7.0 at concentrations of 25, 50, 100, and 200 parts per million of potential ionizable positive chlorine for Compound 1 (or molar equivalents of total potential ionizable positive halogen for Compound 5), and 2 milliliter aliquots of the solutions were added to each of a series of sterile culture tubes. Control solutions of pH 7.0 demand-free water were also added to a series of tubes. At least 10 tubes at each concentration of disinfectant were employed. Then an inoculated metal cylinder was added to each tube containing disinfectant and each control tube at exactly 30 second intervals. After exactly 10 minutes contact time the cylinders were removed from the tubes at 30 second intervals in the same order as was used for their addition, i.e. the contact time was 10 minutes for all cylinders. Each metal cylinder was placed into a culture tube containing 3 milliliters of nutrient broth and 0.01 normal sodium thiosulfate to quench disinfectant action. All tubes were examined for bacterial growth (inspected for the presence or absence of turbidity) following 48 hours of incubation at 37° C.

[4] = day 0, initial 9.9 (Cpd 1) or 4.9 (Cpd 3) mg per liter
[5] = day 6 (then additional 0.87 grams of Cpd 3 added), 8640 min
[6] = day 10 (then additional 1.042 grams of Cpd 1 added), 14400 min
[7] = day 0 (before addition), initial Cl+ 9.9 (Cpd 1) or 4.9 (Cpd 3) mg per liter
[8] = day 1, initial Cl+ 9.9 (Cpd 1) or 4.9 (Cpd 3) mg per liter
[9] = day 3, initial Cl+ 9.9 (Cpd 1) or 4.9 (Cpd 3) mg per liter
[10] = day 8, second addition of Cpd 3 at day 6
[11] = day 10, second addition of Cpd 3 at day 6, of Cpd 1 at day 10
[12] = day 19, after second additions, no titratable chlorine left

Structure (SMILES) | regrowth of algae (in words) [1] | Percent Total Potential Positive Chlorine Remaining [1, 4] | Percent Total Potential Positive Chlorine Remaining ([1]; day 1) | Percent Total Potential Positive Chlorine Remaining ([1]; day 3) | Percent Total Potential Positive Chlorine Remaining [1, 5] | Percent Total Potential Positive Chlorine Remaining ([1]; day 7) | Percent Total Potential Positive Chlorine Remaining ([1]; day 8) | Percent Total Potential Positive Chlorine Remaining [1, 6] | Percent Total Potential Positive Chlorine Remaining ([1]; day 16) | A750 (Absorbance at 750 Nanometers) [1, 7] | A750 (Absorbance at 750 Nanometers) [1, 8] | A750 (Absorbance at 750 Nanometers) [1, 9] | A750 (Absorbance at 750 Nanometers) [1, 10] | A750 (Absorbance at 750 Nanometers) [1, 11] | A750 (Absorbance at 750 Nanometers) ([1]; day 16, after second additions) | A750 (Absorbance at 750 Nanometers) [1, 12] | algastatic / algacidal effect (in words) [1] | decoloration / bleaching of algae (in words) [1] | remaining at 3 h [2] | remaining at 5 h [2] | other results
CC1(C)NC(=O)C(C)(C)N1Cl [Compound 3, 1-chloro-2,2,5,5-tetramethylimidazolidin-4-one] | the algae began to grow again | 100.0% | 71.8% | 31.0% | 0.0% | 77.3% | 47.6% | 17.3% | 0.0% | 0.112 | 0.063 | 0.066 | 0.021 | 0.012 | 0.007 | 0.010 | algastatic, but not algacidal | a longer time period for decoloration | – | – | –
CC1(C)C(=O)N(Cl)C(C)(C)N1Br [Compound 5, 1-bromo-3-chloro-2,2,5,5-tetramethylimidazolidin-4-one] | – | – | – | – | – | – | – | – | – | – | – | – | – | – | – | – | – | – | 60.5% | 45.7% | remaining at 10 h [2]: 14.9%; stability (in words) [2]: less stable than Compound 1, but significantly more stable than free chlorine; bacterial growth after contact (in words) [3]: none of the tubes containing compounds 1 or 5 at any of the concentration levels exhibited bacterial growth; minimal effective concentration ([3]; total potential positive halogen): ≤ 40.7 µg/mL
CC1(C)C(=O)N(Cl)C(C)(C)N1Cl [Compound 1, 1,3-dichloro-2,2,5,5-tetramethylimidazolidin-4-one] | the algae began to grow again | 100.0% | 82.9% | 44.4% | 13.8% | 7.0% | 3.4% | 0.0% | 34.7% | 0.273 | 0.064 | 0.081 | 0.058 | 0.038 | 0.020 | 0.055 | algastatic, but not algacidal | only white turbidity resulting from the bleaching of the algae | 84.9% | 74.8% | remaining at 10 h [2]: 51.2%; stability (in words) [2]: much more stable than free chlorine; time to noticeable loss of green coloration ([1]; Cpd 1 at 9.9 mg per liter Cl+): ≤ 4 h; bacterial growth after contact (in words) [3]: none of the tubes containing compounds 1 or 5 at any of the concentration levels exhibited bacterial growth; minimal effective concentration ([3]; potential ionizable positive chlorine): ≤ 25 µg/mL
